Assay results from US7005447B2, “Food product comprising hydroxymatairesinol” (Hormos Nutraceutical Oy Ltd., priority 1999, dated 2006).
pIC50: −log10 of the molar value.

Key:
[1] = test system: DMBA-induced mammary gland tumors; test: Antitumor activity in rat DMBA-induced mammary cancer model; format: in vivo
Experimental: Antitumor activity of HMR in rat mammary cancer was studied as described earlier ([…] et al. 1986). Fifty-day-old female Sprague-Dawley rats were given 12.0 mg DMBA (dimethylbentz[a]anthracene) by […]. After approximately 6 weeks palpable tumors could be detected, whereafter the width (w) and the length (1) of the tumors were measured once a week to determine the tumor volumes according to a formula V=(πw^2 l)/12. The rats were also weighed once a week. The rats were allocated in 3 different groups so that the total number of tumors in the beginning of the experiment was similar in each group: (1) Control group 8 animals, (2) HMR 3.0 mg/kg 7 animals, and (3) HMR 15.0 mg/kg 7 animals, one of which had to be killed before the end of the experiment. HMR was given per os starting 9 weeks after the DMBA-induction, i.e. 3 weeks after palpable tumors appeared, and was given daily for 7.5 weeks. At the end of the experiment the tumors were classified in groups according to their growth pattern: 1. Growing tumors (PD=progressive disease); 2. Non-growing, stabilized tumors (SD=stabilized disease, no change in tumor volume or regression less than 75%; 3. Regressing tumors (PR=partial response, regression of tumor volume more than 75%); 4. Disappeared tumors (CR=complete response, no palpable tumor).

[2] = test system: low density lipoprotein (LDL) oxidation; test: Inhibition of LDL oxidation (CuCl2-induced, absorbance at 234 nm); format: biochemical; details: CuCl2, 3 hrs at +37° C.; read-out: Inhibition of LDL oxidation, IC-50
Experimental: Inhibition of LDL oxidation was estimated as described by Ahotupa et al, 1996. Shortly: LDL was isolated by precipitation with buffered heparin. After resuspendation in phosphate buffer, 20 mM CuCl2 was added and the mixture was incubated for 3 hrs at +37° C. After this, LDL lipids were extracted with chloroform-methanol, dried under nitrogen, redissolved in cyclohexane and analyzed spectrophotometrically at 234 nm. The intensity of absorbance is indicative of LDL oxidation. To test the ability of different compounds to prevent LDL oxidation, the compounds were added to the incubation mixture prior addition of CuCl2. Possible interference of test compounds with the assay procedure was excluded by measuring the absorption at 234 nm before and after the incubation period.

[3] = test system: intact and hypoandrogenic Noble strain male rats; test: Estrogenic and antiestrogenic activity in adult male rats (intact and hypoandrogenic); format: in vivo, rat; details: for Body weight / Coaculating gland relative weight / Seminal vesicle relative weight / Testis relative weight / Ventral Prostate relative weight: HMR 50 mg/kg daily; for Body weight / Coaculating gland relative weight / Seminal vesicle relative weight / Testis relative weight / Ventral Prostate relative weight / Pituitary LH (μg/pit) / Serum LH / Serum testosterone / Testis testosterone (ng/testis): four weeks, mean ± SD; for Pituitary LH (μg/pit) / Serum LH / Serum testosterone / Testis testosterone (ng/testis): 50 mg/kg HMR
Experimental: Estrogenic (antiandrogenic) and antiestrogenic effects of HMR were studied in intact and hypoandrogenic Noble strain male rats (age 6–9 month), correspondingly. The chronic hypoandrogenic state with both structural and functional changes in the male reproductive tract was induced by neonatal estrogenization (diethylstilbestrol, 10.0 μg/kg body weight in rape oil s.c. on postnatal days 1–5). These changes are known to be partly reversible by aromatase inhibitor treatment consisting daily dose of MPV-2213 ad 10–30 mg/kg body weight (Streng et al. unpublished observations).
Twelve of both intact and hypoandrogenic animals were cavaged in daily dosage of HMR 50 mg/kg body weight in rape oil. Another twelve animals from both animal models were cavaged with rape oil only as a placebo treatment. After four-week treatment the animals were sacrificed. The weights of testis and accessory sex glands (ventral prostate, seminal vesicles and coagulating gland) were measured. Serum and testis testosterone and pituitary and serum luteinizing hormone (LH) levels were measured by immunoassays (Haavisto et al. 1993).

aromatase = target: T1, aromatase (Homo sapiens, UniProt P11511); test: Aromatase inhibiting capacity in JEG-3 cells (3H-17β-estradiol formation from 3H-androstenedione); format: cell-based; details: 4 h incubation, FIG. 1
T1 construct: 800 μl cell suspension (1 million cells); endogenous in cells; host or cells: JEG-3 human choriocarcinoma cells
T1 sequence (P11511 1-503): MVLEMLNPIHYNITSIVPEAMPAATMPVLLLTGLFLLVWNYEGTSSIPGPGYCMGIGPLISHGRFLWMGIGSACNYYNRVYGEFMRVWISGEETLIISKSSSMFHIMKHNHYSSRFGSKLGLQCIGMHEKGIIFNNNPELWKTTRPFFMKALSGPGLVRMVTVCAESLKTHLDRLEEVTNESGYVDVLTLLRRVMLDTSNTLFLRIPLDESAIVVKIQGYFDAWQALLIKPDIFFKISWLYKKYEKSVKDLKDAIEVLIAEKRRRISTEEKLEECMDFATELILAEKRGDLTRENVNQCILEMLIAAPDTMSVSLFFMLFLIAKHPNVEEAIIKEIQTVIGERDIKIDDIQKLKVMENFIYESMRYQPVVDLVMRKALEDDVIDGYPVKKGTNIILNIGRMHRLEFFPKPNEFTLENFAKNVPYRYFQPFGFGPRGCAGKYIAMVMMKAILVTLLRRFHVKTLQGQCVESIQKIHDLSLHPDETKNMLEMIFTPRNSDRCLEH
Experimental: The effects of HMR and structurally related lignans (enterolactone, enterodiol and 7-hydroxyenterolactone) were studied on formation of ^3H-17β-estradiol from ^3H-andostenedione in JEG-3 cells, human choriocarcinoma cell line. […] Cells were maintained in DMEM containing 10% fetal calf serum (FCS). The incubation mixture contained 50 μl ^3H-androst-4-ene, 3,17-dione (0.5 nM), 50 μl unlabelled androstenedione (0.5 nM), 100 μl test compounds (10 mM) and 800 μl cell suspension (1 million cells). After the incubation for 4 h, unlabelled carriers (androstenedione, testosterone, 17β-estradiol and estrone) were added. The steroids were extracted twice with 3.0 ml dichloromethane. […] The column system consisted of a guard column followed by a C18 150×3.9 mm ID analytical column (Technopak 10 C18 HPLC Technology; Wellington House, Cheshire, UK). The mobile phase was acetonitrile/water (35/65) and the flow rate was 1.2 ml/min. For in-line detection of the radioactive metabolites, the eluent of the HPCL column was continuously mixed with liquid scintillant and then monitored with in-line radioactivity detector.

[4] = test system: uterine growth of immature rats; test: Immature rat uterotropic test; format: in vivo; details: 7 days treatment, FIG. 3
Experimental: The estrogenicity HMR was evaluated by the uterotropic assay in immature rats which was performed as described earlier (Jordan et al. 1977), with the exception of treatment time which was 7 days instead of 3 days in the reference study. The treatment time was longer because of the expected weak estrogenicity of the test compound. The treatment of immature rats with an aromatase inhibitor (MPV-2213 ad), which prevents biosynthesis of estradiol, was used as a methodological control for non-estrogen-stimulated uterus.

[5] = control and hypoandrogenic animals, 4-week treatment, versus placebo

COc1cc(CC2C(=O)OCC2C(O)c2ccc(O)c(OC)c2)ccc1O (centres unmarked) [HMR, hydroxymatairesinol]
Dose-dependency of antitumor action ([1]; HMR 3.0 versus 15.0 mg/kg): no clear dose-dependency
Antitumor effect (growing versus stable, regressing and disappeared tumors) ([1]; female Sprague-Dawley rats, HMR 3.0 and 15.0 mg/kg per os daily for 7.5 weeks, FIG. 4): statistically very significant
pIC50 [2]: 5.70
Changes in testosterone or LH concentrations [3, 5]: no significant changes
Changes in the weights of accessory sex glands and testis [3, 5]: no significant changes
Body weight ([3]; hypoandrogenemic (neonatally estrogenized) male rats): 455 ± 36 g
Coaculating gland relative weight ([3]; hypoandrogenemic male rats): 70 ± 30 mg/kg body weight
Seminal vesicle relative weight ([3]; hypoandrogenemic male rats): 266 ± 49 mg/kg body weight
Testis relative weight ([3]; hypoandrogenemic male rats): 3276 ± 327 mg/kg body weight
Ventral Prostate relative weight ([3]; hypoandrogenemic male rats): 378 ± 198 mg/kg body weight
Pituitary LH (μg/pit) ([3]; hypoandrogenic male rats): 7.530 ± 2.286 μg/pit
Serum LH ([3]; hypoandrogenic male rats): 0.854 ± 0.333 ng/mL
Serum testosterone ([3]; hypoandrogenic male rats): 0.939 ± 0.431 ng/mL
Testis testosterone (ng/testis) ([3]; hypoandrogenic male rats): 48.0 ± 15.2 ng/testis
Pituitary LH (μg/pit) ([3]; intact male rats): 6.838 ± 2.061 μg/pit
Serum LH ([3]; intact male rats): 1.088 ± 0.352 ng/mL
Serum testosterone ([3]; intact male rats): 2.770 ± 1.421 ng/mL
Testis testosterone (ng/testis) ([3]; intact male rats): 112.9 ± 58.5 ng/testis
Body weight ([3]; intact male rats): 447 ± 38 g
Coaculating gland relative weight ([3]; intact male rats): 204 ± 48 mg/kg body weight
Seminal vesicle relative weight ([3]; intact male rats): 419 ± 59 mg/kg body weight
Testis relative weight ([3]; intact male rats): 4223 ± 304 mg/kg body weight
Ventral Prostate relative weight ([3]; intact male rats): 938 ± 148 mg/kg body weight
Inhibition of aromatization (3H-17β-estradiol formation from 3H-androstenedione) (aromatase): no inhibitory effects
Antiestrogenic effect (reduction of uterine weight gain) [4]: no antiestrogenic effect
Estrogenic effect on uterine weight gain [4]: no significant estrogenic effect
